From patent publication USRE35862E, “Delivery systems for pharmacological agents encapsulated with proteinoids” (Emisphere Technologies, Inc., priority 1994, dated 1998)
Where two headings read alike, the source gives them in different places.

Assays:
blood glucose [1] = settings: oral, far larger dosages per unit of body weight, unprotected, laboratory animals and humans; cited from earlier work
coagulation time = settings: oral, far larger doses per unit of body weight, unprotected, laboratory animals and humans; cited from earlier work
[2] = tested on: Time to coagulation (fibrin clot); assay: Activated Partial Thromboplastin Time (APTT) test, Table 6 (Example 8b); format: in vivo, rat
Procedure: Seven male white rats, each weighing approximately 600 g, are deprived of food for 12 hours before the start of the experiment. Rat #1 receives no treatment. Rat #2 receives an intravenous injection of 250 mg of heparin in one ml of distilled water. […] The effect of heparin is determined using the Activated Partial Thromboplastin Time (APTT) test. This test measures the time necessary for a sample of […] taken from the tail vein to form a fibrin clot.

[3] = insulin in solution, even when refrigerated; cited from earlier work
blood glucose [4] = assay: Blood glucose in normal rats, Table 1 (Example 2c); format: in vivo, rat; settings: Group Four
Procedure: The Group Two rats have between 1.5 and 1.7 ml of the suspension similarly administered. The rats of Group Three receive 1.0 ml of distilled water similarly administered. The rats of Group Four similarly receive 25.0 mg of porcine insulin in 1.0 ml of distilled water. Both before and during the experiment, all animals are permitted free access to water and their normal feed. Blood glucose levels are measured on samples drawn from the tail at specific intervals after treatment and group averages are recorded in Table 1 as milligrams of glucose per deciliter of blood (mg/dl).

blood glucose [5] = assay: Blood glucose in normal rats, Table 2 (Example 4); format: in vivo, rat; settings: 1 ml/500 g by gavage
Procedure: Doses of the resulting suspension, which contain no insulin within the microspheres, are referred to as "microspheres with external insulin". Dosages of the 2.5 mg/ml solution of porcine insulin alone are referred to as "raw insulin".
Twelve male white rats, each weighing approximately 500 g and havinng a normal blood glucose level, are arbitrarily assigned to two groups of three animals and a third group of six animals. The three animals of group A are administered the insulin filled microspheres by gavage and the three animals of group B are similarly administered the microspheres with external insulin. The six animals of group C similarly receive the raw insulin. All dosages are 1 ml/500 g of body weight and all animals are tested for blood glucose immediately before dosage and at intervals thereafter.

blood glucose [6] = tested on: blood glucose
Procedure: Diabetes mellitis is induced in rats weighing approximately 300 g by giving each a 75 mg/kg body weight intravenous injection of streptozotocin. Ten rats which are observed to show consistently high blood glucose levels, polyuria and polydipsia and must be maintained on subcutaneous injections of porcine insulin are selected for this experiment.
The remaining six diabetic rats are arbitrarily assigned to three groups of two animals. […] The animals of the second and third groups receive subcutaneous injections of 0.25 mg (6.5 I.U.) and 0.125 mg (3.25 I.U.), respectively, of porcine insulin. Blood glucose measurements are made on all animals immediately before dosing and at intervals thereafter. The animal groups are crossed over twice at one week intervals, so that all of the animals receive each of the insulin treatments.

bovine insulin
reduction of blood glucose levels (blood glucose [1]): no detectable reduction of blood glucose levels

heparin
increase in coagulation time (coagulation time): no detectable increase in coagulation time | Time to Coagulation in the APTT Test ([2]; 1 hr, IV 250 mg): 54 s | Time to Coagulation in the APTT Test ([2]; 2 hrs, IV 250 mg): > 300 s | Time to Coagulation in the APTT Test ([2]; Predose, IV group, 250 mg): 25 s

insulin
degradation in solution [3]: degrade within a few days

porcine insulin
Ave. Blood Glucose (blood glucose [4]; 30 min, 25.0 mg by gavage): 120 mg/dL | Ave. Blood Glucose (blood glucose [4]; 1 hr, 25.0 mg by gavage): 120 mg/dL | Ave. Blood Glucose (blood glucose [4]; 1.5 hr, 25.0 mg by gavage): 124 mg/dL | Ave. Blood Glucose (blood glucose [4]; 2 hr, 25.0 mg by gavage): 120 mg/dL | Ave. Blood Glucose (blood glucose [4]; 3 hr, 25.0 mg by gavage): 116 mg/dL | Ave. Blood Glucose (blood glucose [4]; 4 hr, 25.0 mg by gavage): 111 mg/dL | Ave. Blood Glucose (blood glucose [4]; 6 hr, 25.0 mg by gavage): 123 mg/dL | Ave. Blood Glucose (blood glucose [4]; Predose, 25.0 mg in 1.0 ml water by gavage): 113 mg/dL | Blood Glucose (blood glucose [5]; 0 hrs): 92.7 mg/dL | effect on blood glucose levels (blood glucose [5]): no significant effect | Blood Glucose (blood glucose [5]; 1 hrs): 98.2 mg/dL | Blood Glucose (blood glucose [5]; 2 hrs): 95.8 mg/dL | Blood Glucose (blood glucose [5]; 3 hrs): 86.2 mg/dL | Blood Glucose (blood glucose [5]; 4 hrs): 91 mg/dL | Blood Glucose (blood glucose [5]; 6 hrs): 89.8 mg/dL | Blood Glucose (blood glucose [5]; 8 hrs): 91 mg/dL | Blood Glucose (blood glucose [5]; 12 hrs): 92 mg/dL | Blood Glucose (blood glucose [5]; 24 hrs): 92 mg/dL | Blood Glucose (blood glucose [5]; .5 hrs): 95.5 mg/dL | % Decrease from Baseline Blood Glucose (blood glucose [6]; 0.5 hrs, 0.125 mg SC): 5% | % Decrease from Baseline Blood Glucose (blood glucose [6]; 0.5 hrs, 0.25 mg SC): 28% | % Decrease from Baseline Blood Glucose (blood glucose [6]; 1 hrs, 0.125 mg SC): 17% | % Decrease from Baseline Blood Glucose (blood glucose [6]; 1 hrs, 0.25 mg SC): 55% | % Decrease from Baseline Blood Glucose (blood glucose [6]; 1.5 hrs, 0.125 mg SC): 27% | % Decrease from Baseline Blood Glucose (blood glucose [6]; 1.5 hrs, 0.25 mg SC): 72% | % Decrease from Baseline Blood Glucose (blood glucose [6]; 2 hrs, 0.125 mg SC): 45% | % Decrease from Baseline Blood Glucose (blood glucose [6]; 2 hrs, 0.25 mg SC): 77% | % Decrease from Baseline Blood Glucose (blood glucose [6]; 3 hrs, 0.125 mg SC): 47% | % Decrease from Baseline Blood Glucose (blood glucose [6]; 3 hrs, 0.25 mg SC): 84% | % Decrease from Baseline Blood Glucose (blood glucose [6]; 4 hrs, 0.125 mg SC): 29% | % Decrease from Baseline Blood Glucose (blood glucose [6]; 4 hrs, 0.25 mg SC): 79% | % Decrease from Baseline Blood Glucose (blood glucose [6]; 6 hrs, 0.125 mg SC): 8% | % Decrease from Baseline Blood Glucose (blood glucose [6]; 6 hrs, 0.25 mg SC): 34% | % Decrease from Baseline Blood Glucose (blood glucose [6]; 8 hrs, 0.125 mg SC): -8% | % Decrease from Baseline Blood Glucose (blood glucose [6]; 8 hrs, 0.25 mg SC): 4% | % Decrease from Baseline Blood Glucose (blood glucose [6]; 12 hrs, 0.125 mg SC): -8% | % Decrease from Baseline Blood Glucose (blood glucose [6]; 12 hrs, 0.25 mg SC): 3% | % Decrease from Baseline Blood Glucose (blood glucose [6]; 24 hrs, 0.125 mg SC): -8% | % Decrease from Baseline Blood Glucose (blood glucose [6]; 24 hrs, 0.25 mg SC): -7% | % Decrease from Baseline Blood Glucose (blood glucose [6]; 48 hrs, 0.125 mg SC): -8% | % Decrease from Baseline Blood Glucose (blood glucose [6]; 48 hrs, 0.25 mg SC): -5% | reduction of blood glucose levels (blood glucose [1]): no detectable reduction of blood glucose levels
